# Assay results as given in patent US8366933B2, “Method for bacterial treatment of effluents containing 2-ethylhexyl nitrate” (Commissariat a l'Energie Atomique, priority 2007, dated 2013).
# What was measured:
# [1] = cited from earlier work
# [2] = system: C. urealyticum CIP-I-2126 strain; assay: 2-EHN degradation with a non-biodegradable hydrophobic liquid phase (respirometer); format: cell-based, Corynebacterium urealyticum; details: per flask containing 500 mL medium at 500 mg/L 2-EHN
# Method: The capacity for degradation of 2-EHN by the C. urealyticum CIP-I-2126 strain in the presence of a non-biodegradable hydrophobic liquid phase used as a substrate reservoir is studied. The cultures were carried out at 30° C. with a respirometer so as to determine the kinetic characteristics of the biodegradation.
# Two non-biodegradable liquid phases were tested: 2,2,4,4,6,8,8-heptamethylnonane (HMN) and silicone oil (Table 3).
# [3] = system: zebrafish; details: acute toxicity; cited from earlier work
# [4] = system: Daphnia; details: acute toxicity; cited from earlier work
# [5] = cited from earlier work; remark: listed apart in the source
smiles,measurement,setting,value
"CCCCC(CC)CO[N+](=O)[O-] (stereo not shown) [2-EHN, 2-ethylhexyl nitrate]",Vapour pressure at 20° C.,[1],27 Pa
same,MAXIMUM DEGRADATION RATE (MMOLO2/J),[2]; liquid phase added: HMN,5.3 MMOLO2/J
same,MAXIMUM DEGRADATION RATE (MMOLO2/J),[2]; liquid phase added: Silicone oil,5.8 MMOLO2/J
same,MAXIMUM DEGRADATION RATE (MMOLO2/J),[2]; liquid phase added: none,0.3 MMOLO2/J
same,LC50 (50% lethal concentrations),[3],higher than its water solubility
same,LC50 (50% lethal concentrations),[4],higher than its water solubility
same,Solubility at 20° C.,[5],12.6 µg/mL
